Data published in ChEMBL document CHEMBL5046291, “Evodiamine-Inspired Topoisomerase-Histone Deacetylase Dual Inhibitors: Novel Orally Active Antitumor Agents for Leukemia Therapy” (J Med Chem, 2022).
Activity calls are given as the source filed them. The calls are words filed in the database; no cut-off is given here.

Key:
[1] = Metabolic stability in ICR mouse liver microsome assessed as half life; type: ADME; conditions: liver microsomes
HEL [2] = test: Antitumor activity against HEL cells xenografted in BALB/C mouse assessed as tumor growth inhibition at 10 mg/kg, po qd for 14 days consecutively by caliper method relative to control; type: functional, Homo sapiens; conditions: 336 h, time 14 day, read-out: TGI
HEL [3] = test: Antitumor activity against HEL cells xenografted in BALB/C mouse assessed as T/C value at 5 mg/kg, po qd for 14 days consecutively by caliper method relative to control; type: functional, Homo sapiens; conditions: time 14 day
MCF7 = test: Antiproliferative activity against human MCF7 cells assessed as cell growth inhibition incubated for 8 hrs by CCK8 assay; type: functional, cell-based; conditions: MCF7, 8 h
HEL [4] = test: Induction of cell cycle arrest in HEL cells assessed as change in S-phase ratio at 0.02 uM incubated for 48 hrs by PI staining based flow cytometry relative to control; type: functional, Homo sapiens
Histone deacetylase 1 = Histone deacetylase 1 (Homo sapiens, UniProt Q13547); test: In vivo inhibition of HDAC1 in HEL cells xenografted in BALB/C mouse assessed as upregulation of acetyl-H3 levels at 5 to 10 mg/kg by immunohistochemical staining method; type: functional, organism-based; conditions: dose 5-10 mg/kg
Histone deacetylase 8 = target: T1, Histone deacetylase 8 (Homo sapiens, UniProt Q9BY41); test: Inhibition of full-length recombinant C-terminal His-tagged human HDAC8 expressed in baculovirus infected Sf9 insect cells using Ac-Leu-Gly-Lys(Tfa)-AMC as substrate preincubated for 5 mins followed by substrate addition and further incubated for 30 mins by fluorescence based microtiter plate reader assay
T1 sequence (Q9BY41 whole entry): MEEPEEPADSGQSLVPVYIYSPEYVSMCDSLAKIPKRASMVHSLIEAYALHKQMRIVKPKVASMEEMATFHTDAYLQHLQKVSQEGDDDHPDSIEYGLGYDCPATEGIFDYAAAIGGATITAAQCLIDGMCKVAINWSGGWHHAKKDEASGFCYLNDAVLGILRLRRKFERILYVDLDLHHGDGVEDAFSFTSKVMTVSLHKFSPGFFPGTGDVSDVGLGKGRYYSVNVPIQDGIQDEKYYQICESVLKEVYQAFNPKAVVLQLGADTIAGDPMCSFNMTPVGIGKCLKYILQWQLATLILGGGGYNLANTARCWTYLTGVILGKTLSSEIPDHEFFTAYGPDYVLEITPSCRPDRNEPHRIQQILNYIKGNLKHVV

[5] = target: T2, Protein deacetylase HDAC6 (Homo sapiens, UniProt Q9UBN7); test: Inhibition of full-length recombinant N-terminal GST-tagged human HDAC6 expressed in baculovirus infected Sf9 cells using Ac-Leu-Gly-Lys(Ac)-AMC as substrate preincubated for 5 mins followed by substrate addition and further incubated for 30 mins by fluorescence based microtiter plate reader assay
T2 sequence (Q9UBN7 whole entry): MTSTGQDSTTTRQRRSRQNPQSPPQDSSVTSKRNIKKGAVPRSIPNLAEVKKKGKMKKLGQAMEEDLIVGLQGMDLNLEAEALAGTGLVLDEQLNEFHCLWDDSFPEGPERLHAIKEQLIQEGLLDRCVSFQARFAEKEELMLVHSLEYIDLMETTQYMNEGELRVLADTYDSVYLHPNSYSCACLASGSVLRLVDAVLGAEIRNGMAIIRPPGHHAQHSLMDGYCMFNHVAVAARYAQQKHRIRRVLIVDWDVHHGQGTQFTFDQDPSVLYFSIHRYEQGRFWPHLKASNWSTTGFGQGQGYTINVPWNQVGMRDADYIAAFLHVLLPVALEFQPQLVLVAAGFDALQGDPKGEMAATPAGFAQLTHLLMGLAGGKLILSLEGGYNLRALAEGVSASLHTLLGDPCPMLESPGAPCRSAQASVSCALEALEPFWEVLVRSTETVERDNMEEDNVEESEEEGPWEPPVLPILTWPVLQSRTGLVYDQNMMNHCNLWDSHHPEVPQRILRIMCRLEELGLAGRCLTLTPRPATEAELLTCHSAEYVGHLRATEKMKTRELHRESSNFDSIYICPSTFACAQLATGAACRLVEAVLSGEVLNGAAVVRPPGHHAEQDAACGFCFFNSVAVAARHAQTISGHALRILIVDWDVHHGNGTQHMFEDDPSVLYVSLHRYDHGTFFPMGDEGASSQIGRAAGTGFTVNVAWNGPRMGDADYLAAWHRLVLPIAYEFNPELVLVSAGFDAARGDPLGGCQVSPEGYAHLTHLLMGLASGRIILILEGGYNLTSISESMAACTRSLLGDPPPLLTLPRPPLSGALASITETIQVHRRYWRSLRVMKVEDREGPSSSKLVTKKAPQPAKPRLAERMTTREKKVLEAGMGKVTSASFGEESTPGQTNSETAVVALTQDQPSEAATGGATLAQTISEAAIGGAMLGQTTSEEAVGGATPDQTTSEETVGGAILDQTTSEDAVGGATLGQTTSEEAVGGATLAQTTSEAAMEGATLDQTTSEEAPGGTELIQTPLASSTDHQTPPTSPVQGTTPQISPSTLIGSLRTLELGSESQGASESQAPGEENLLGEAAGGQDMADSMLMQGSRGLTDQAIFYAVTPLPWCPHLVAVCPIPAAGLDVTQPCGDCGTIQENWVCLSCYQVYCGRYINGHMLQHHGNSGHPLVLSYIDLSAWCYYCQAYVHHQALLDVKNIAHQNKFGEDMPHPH

HEL [6] = test: Antitumor activity against HEL cells xenografted in BALB/C mouse assessed as T/C value at 10 mg/kg, po qd for 14 days consecutively by caliper method relative to control; type: functional, Homo sapiens; conditions: time 14 day
[7] = Toxicity in BALB/C mouse xenografted with HEL cells assessed as animal death at 5 to 10 mg/kg, po qd for 14 days consecutively; type: organism-based; conditions: in vivo, 336 h, dose 5-10 mg/kg, time 14 day

Sequence of Histone deacetylase 1 (Q13547 whole entry): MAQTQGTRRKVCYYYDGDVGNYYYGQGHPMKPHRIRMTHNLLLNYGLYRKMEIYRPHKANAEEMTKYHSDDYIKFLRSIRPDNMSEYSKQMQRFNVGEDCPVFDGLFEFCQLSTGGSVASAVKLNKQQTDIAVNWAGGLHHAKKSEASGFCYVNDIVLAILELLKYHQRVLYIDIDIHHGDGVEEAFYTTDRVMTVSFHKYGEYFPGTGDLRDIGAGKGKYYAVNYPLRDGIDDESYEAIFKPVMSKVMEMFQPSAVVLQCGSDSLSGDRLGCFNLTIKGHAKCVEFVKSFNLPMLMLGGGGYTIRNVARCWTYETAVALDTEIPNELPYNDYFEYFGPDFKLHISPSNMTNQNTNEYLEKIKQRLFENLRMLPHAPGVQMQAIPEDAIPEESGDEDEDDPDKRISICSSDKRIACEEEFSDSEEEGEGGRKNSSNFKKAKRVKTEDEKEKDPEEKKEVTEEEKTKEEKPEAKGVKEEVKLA

CN1c2ccc(F)cc2C(=O)N2CCc3c([nH]c4ccc(OCc5ccc(/C=C/C(=O)NO)cc5)cc34)C21 (stereo not given) gave a half-life [1] of 31.5 min, an inhibition in vivo at 10 mg/kg (HEL [2]) of 68.5% and a T/C (HEL [3]) of 54.3%. The IC50 (MCF7) was greater than 2 µM, the Activity (HEL [4]) was 9.8% and the inhibition (Histone deacetylase 1) was “Active”. It also gave an IC50 (Histone deacetylase 8) of 9.8 µM, an IC50 [5] of 0.089 µM and a T/C (HEL [6]) of 25.5%. For the same compound, the Activity [7] was “Non-Toxic”.
